Patent US20260363251A1 (priority 2022, published 2026)

Assays:
[1] = tested on: Mycosphaerella fijiensis; experiment: Treatment of black Sigatoka on banana (Table 10); type: in vivo; conditions: 1 d preventive, 400 L/ha, 75 g/ha, 63DAI, + 0.9% Orchex 796 + 0.1% Emulsogen M
[2] = tested on: Fusarium avenaceum; type: in vivo; conditions: 1 d preventive, 220 L/ha, 125 g/ha, 14DAI
[3] = tested on: Fusarium virguliforme; experiment: Seed treatment, soilborne Fusarium virguliforme in soybean in the greenhouse (Example 4.2); conditions: FS500, 40 g ai per 100 kg seeds; disease index vs infected control
[4] = tested on: Fusarium graminearum; type: in vivo; conditions: 1 d preventive, 220 L/ha, 125 g/ha, 7DAI
[5] = tested on: Oculimacula yallundae; experiment: Treatment of eyespot on wheat (Table 15); type: in vivo; conditions: 1 d preventive, 200 L/ha, 450 g/ha
[6] = tested on: Puccinia recondita; experiment: Treatment of Puccinia recondita on wheat beyond the treated area (Table 16); type: in vivo; conditions: 188 ppm, 11DAI
[7] = tested on: Zymoseptoria tritici; experiment: Preventive and curative treatment of Zymoseptoria tritici on wheat (Table 8); type: in vivo; conditions: 200 L/ha, 17DAI
[8] = tested on: Blumeria graminis f.sp. tritici; experiment: Treatment of powdery mildew on wheat (Table 12); type: in vivo; conditions: 1 d preventive, 200 L/ha, 27 g/ha, 7DAI
[9] = tested on: Zymoseptoria tritici; experiment: Treatment of Zymoseptoria tritici on wheat beyond the treated area (Table 16); type: in vivo; conditions: 188 ppm, 17DAI
[10] = tested on: Parastagonospora nodorum; experiment: Treatment of glume blotch on wheat (Table 14); type: in vivo; conditions: 1 d preventive, 200 L/ha, 7DAI
[11] = tested on: Rhynchosporium secalis; experiment: Treatment of scald on barley (Table 14); type: in vivo; conditions: 1 d preventive, 200 L/ha, 15DAI
[12] = tested on: Ramularia collo-cygni; experiment: Treatment of ramularia leaf spot on barley (Table 14); type: in vivo; conditions: 1 d preventive, 200 L/ha, 20DAI
[13] = tested on: Alternaria solani; experiment: Treatment of early blight on tomato (Table 13); type: in vivo; conditions: 1 d preventive, 400 L/ha, 4DAI
[14] = tested on: Puccinia recondita; experiment: Preventive and curative treatment of Puccinia recondita on wheat (Table 8); type: in vivo; conditions: 200 L/ha
[15] = tested on: Mycosphaerella arachidis; experiment: Treatment of early leaf spots on groundnut (Table 13); type: in vivo; conditions: 1 d preventive, 400 L/ha, 11DAI
[16] = tested on: Puccinia striiformis; experiment: Treatment of wheat infected with yellow rust Puccinia striiformis (Table 9); type: in vivo; conditions: 200 L/ha
[17] = tested on: Colletotrichum lagenarium; experiment: Treatment of anthracnose on cucumber (Table 13); type: in vivo; conditions: 1 d preventive, 400 L/ha, 5DAI

CON(C(=O)c1cn(C)nc1C(F)F)C(C)Cc1c(Cl)cc(Cl)cc1Cl (stereo not shown) [Pydiflumetofen]
disease symptom reduction (%) vs. Untreated [1]: 97% | disease symptom reduction (%) vs. Untreated [2]: 96% | activity (%) [3]: 89% | disease symptom reduction (%) vs. Untreated [4]: 94%

Cc1cc(C2CC2)nc(Nc2ccccc2)n1 [Cyprodinil]
disease symptom reduction (%) vs. Untreated [5]: 56%

Cn1cc(C(=O)Nc2cccc3c2C2CCC3C2=C(Cl)Cl)c(C(F)F)n1 (stereo not shown) [SOLATENOL]
disease cover on leaf (%) ([6]; leaf 1, not treated): 80% | disease symptom reduction (%) vs. Untreated ([6]; leaf 1, not treated): 11% | disease cover on leaf (%) ([6]; leaf 2 - base, not treated): 81% | disease symptom reduction (%) vs. Untreated ([6]; leaf 2 - base, not treated): 0% | disease cover on leaf (%) ([6]; leaf 2 - middle, treated): 0% | disease symptom reduction (%) vs. Untreated ([6]; leaf 2 - middle, treated): 100% | disease cover on leaf (%) ([6]; leaf 2 - tip, not treated): 2% | disease symptom reduction (%) vs. Untreated ([6]; leaf 2 - tip, not treated): 98% | disease cover on leaf (%) ([6]; leaf 3, not treated): 31% | disease symptom reduction (%) vs. Untreated ([6]; leaf 3, not treated): 16% | disease symptom reduction (%) vs. Untreated ([7]; 1 d preventive, 1 g/ha): 0% | disease symptom reduction (%) vs. Untreated ([7]; 1 d preventive, 3 g/ha): 0% | disease symptom reduction (%) vs. Untreated ([7]; 1 d preventive, 9 g/ha): 70% | disease symptom reduction (%) vs. Untreated ([7]; 1 d preventive, 27 g/ha): 97% | disease symptom reduction (%) vs. Untreated ([7]; 3 d curative, 1 g/ha): 4% | disease symptom reduction (%) vs. Untreated ([7]; 3 d curative, 3 g/ha): 0% | disease symptom reduction (%) vs. Untreated ([7]; 3 d curative, 9 g/ha): 61% | disease symptom reduction (%) vs. Untreated ([7]; 3 d curative, 27 g/ha): 82% | disease symptom reduction (%) vs. Untreated [8]: 54% | disease cover on leaf (%) ([9]; leaf 1, not treated): 100% | disease symptom reduction (%) vs. Untreated ([9]; leaf 1, not treated): 0% | disease cover on leaf (%) ([9]; leaf 2 - base, not treated): 89% | disease symptom reduction (%) vs. Untreated ([9]; leaf 2 - base, not treated): 8% | disease cover on leaf (%) ([9]; leaf 2 - middle, treated): 0% | disease symptom reduction (%) vs. Untreated ([9]; leaf 2 - middle, treated): 100% | disease cover on leaf (%) ([9]; leaf 2 - tip, not treated): 0% | disease symptom reduction (%) vs. Untreated ([9]; leaf 2 - tip, not treated): 100% | disease cover on leaf (%) ([9]; leaf 3, not treated): 42% | disease symptom reduction (%) vs. Untreated ([9]; leaf 3, not treated): 15% | disease symptom reduction (%) vs. Untreated ([10]; 4 g/ha): 16% | disease symptom reduction (%) vs. Untreated ([10]; 12 g/ha): 44% | disease symptom reduction (%) vs. Untreated ([10]; 40 g/ha): 81% | disease symptom reduction (%) vs. Untreated ([10]; 120 g/ha): 85% | disease symptom reduction (%) vs. Untreated ([11]; 4 g/ha): 31% | disease symptom reduction (%) vs. Untreated ([11]; 12 g/ha): 60% | disease symptom reduction (%) vs. Untreated ([11]; 40 g/ha): 94% | disease symptom reduction (%) vs. Untreated ([11]; 120 g/ha): 100% | disease symptom reduction (%) vs. Untreated ([12]; 4 g/ha): 6% | disease symptom reduction (%) vs. Untreated ([12]; 12 g/ha): 32% | disease symptom reduction (%) vs. Untreated ([12]; 40 g/ha): 80% | disease symptom reduction (%) vs. Untreated ([12]; 120 g/ha): 97% | disease symptom reduction (%) vs. Untreated ([13]; 1 g/ha): 40% | disease symptom reduction (%) vs. Untreated ([13]; 2 g/ha): 53% | disease symptom reduction (%) vs. Untreated ([13]; 6 g/ha): 80% | disease symptom reduction (%) vs. Untreated ([13]; 20 g/ha): 90% | disease symptom reduction (%) vs. Untreated ([13]; 60 g/ha): 100% | disease symptom reduction (%) vs. Untreated ([14]; 1 d preventive, 1 g/ha, 10DAI): 49% | disease symptom reduction (%) vs. Untreated ([14]; 1 d preventive, 3 g/ha, 10DAI): 88% | disease symptom reduction (%) vs. Untreated ([14]; 1 d preventive, 9 g/ha, 10DAI): 96% | disease symptom reduction (%) vs. Untreated ([14]; 1 d preventive, 27 g/ha, 10DAI): 99% | disease symptom reduction (%) vs. Untreated ([14]; 3 d curative, 1 g/ha, 11DAI): 47% | disease symptom reduction (%) vs. Untreated ([14]; 3 d curative, 3 g/ha, 11DAI): 58% | disease symptom reduction (%) vs. Untreated ([14]; 3 d curative, 9 g/ha, 11DAI): 84% | disease symptom reduction (%) vs. Untreated ([14]; 3 d curative, 27 g/ha, 11DAI): 92% | disease symptom reduction (%) vs. Untreated ([15]; 1 g/ha): 56% | disease symptom reduction (%) vs. Untreated ([15]; 2 g/ha): 67% | disease symptom reduction (%) vs. Untreated ([15]; 6 g/ha): 89% | disease symptom reduction (%) vs. Untreated ([15]; 20 g/ha): 100% | disease symptom reduction (%) vs. Untreated ([15]; 60 g/ha): 98% | disease symptom reduction (%) vs. Untreated ([16]; 1 d preventive, 0.9 g/ha, 22DAI): 0% | disease symptom reduction (%) vs. Untreated ([16]; 1 d preventive, 2.8 g/ha, 22DAI): 76% | disease symptom reduction (%) vs. Untreated ([16]; 1 d preventive, 8 g/ha, 22DAI): 90% | disease symptom reduction (%) vs. Untreated ([16]; 1 d preventive, 25 g/ha, 22DAI): 100% | disease symptom reduction (%) vs. Untreated ([16]; 1 d preventive, 75 g/ha, 22DAI): 100% | disease symptom reduction (%) vs. Untreated ([16]; 4 d curative, 0.9 g/ha, 21DAI): 84% | disease symptom reduction (%) vs. Untreated ([16]; 4 d curative, 2.8 g/ha, 21DAI): 93% | disease symptom reduction (%) vs. Untreated ([16]; 4 d curative, 8 g/ha, 21DAI): 95% | disease symptom reduction (%) vs. Untreated ([16]; 4 d curative, 25 g/ha, 21DAI): 99% | disease symptom reduction (%) vs. Untreated ([16]; 4 d curative, 75 g/ha, 21DAI): 100% | disease symptom reduction (%) vs. Untreated ([17]; 1 g/ha): 53% | disease symptom reduction (%) vs. Untreated ([17]; 2 g/ha): 67% | disease symptom reduction (%) vs. Untreated ([17]; 6 g/ha): 60% | disease symptom reduction (%) vs. Untreated ([17]; 20 g/ha): 90% | disease symptom reduction (%) vs. Untreated ([17]; 60 g/ha): 100%
